# ChEMBL document CHEMBL1201862, “PubChem BioAssay data set” (2004)
#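 Five compound concentrations were applied to cells in 96-well plates for 48 hours; endpoints were derived by simple linear interpolation of the resulting dose-response curve. Abbreviation: GI50, concentration required for 50% inhibition of growth.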 Active and inactive are the calls of the source. Rule as the data show it: active = GI50 up to about 1.1 µM and inactive = higher.
# How the values were obtained:
# Assay in all cases: growth of human tumour cells (NCI), 48 h
# SNB-19 = tested on: SNB-19
# SNB-78 = tested on: SNB-78
# SK-OV-3 = tested on: SK-OV-3
# LOX IMVI = tested on: LOX IMVI
# XF498 = tested on: XF498
# DMS-273 = tested on: DMS-273
# SF-539 = tested on: SF-539
# SF-295 = tested on: SF-295
# DMS-114 = tested on: DMS-114
# IGROV-1 = tested on: IGROV-1
# NCI-H522 = tested on: NCI-H522
# RPMI-8226 = tested on: RPMI-8226
# M19-MEL = tested on: M19-MEL
# KM-20L2 = tested on: KM-20L2
# DU-145 = tested on: DU-145
# MDA-MB-231 = tested on: MDA-MB-231
# MDA-N = tested on: MDA-N
# MDA-MB-435 = tested on: MDA-MB-435
# BT-549 = tested on: BT-549
# Hs-578T = tested on: Hs-578T
SMILES,GI50 (SNB-19),GI50 (SNB-78),GI50 (SK-OV-3),GI50 (LOX IMVI),GI50 (XF498),GI50 (DMS-273),GI50 (SF-539),GI50 (SF-295),GI50 (DMS-114),GI50 (IGROV-1),GI50 (NCI-H522),GI50 (RPMI-8226),GI50 (M19-MEL),GI50 (KM-20L2),GI50 (DU-145),GI50 (MDA-MB-231),GI50 (MDA-N),GI50 (MDA-MB-435),GI50 (BT-549),GI50 (Hs-578T)
Nc1cccc2c1C1=NNC(=O)CC1C2 (centres undefined),> 100 µM (inactive),> 100 µM (inactive),> 100 µM (inactive),> 100 µM (inactive),> 100 µM (inactive),> 100 µM (inactive),> 100 µM (inactive),> 100 µM (inactive),> 100 µM (inactive),> 100 µM (inactive),> 100 µM (inactive),> 100 µM (inactive),> 100 µM (inactive),> 100 µM (inactive),–,–,–,–,–,–
CNC(=O)SCC(N)C(=O)O (centres undefined),> 100 µM (inactive),> 100 µM (inactive),> 100 µM (inactive),42.2 µM (inactive),84.9 µM (inactive),71.4 µM (inactive),> 100 µM (inactive),> 66.2 µM (inactive),35.3 µM (inactive),> 100 µM (inactive),> 67.9 µM (inactive),25.4 µM (inactive),–,> 100 µM (inactive),–,–,–,–,–,–
COc1ccc(C2SCc3nc4ccccc4n32)cc1 (centres undefined),6.07 µM (inactive),8.95 µM (inactive),3.5 µM (inactive),5.78 µM (inactive),0.124 µM (active),3.43 µM (inactive),5.66 µM (inactive),2.94 µM (inactive),2.26 µM (inactive),4.66 µM (inactive),0.986 µM (active),2.96 µM (inactive),3.95 µM (inactive),2.4 µM (inactive),–,–,–,–,–,–
C[C@]12CC[C@@H]3c4ccc(OCCN5CCCC5)cc4CC[C@H]3[C@@H]1CCC2=O,64.3 µM (inactive),–,48.6 µM (inactive),7.38 µM (inactive),–,–,–,18.7 µM (inactive),–,12.4 µM (inactive),–,23.7 µM (inactive),–,–,47.9 µM (inactive),24.5 µM (inactive),22 µM (inactive),42.7 µM (inactive),–,–
NC(CCP(=O)(O)CCC1C=CC=CC1)C(=O)O (centres undefined),> 100 µM (inactive),–,> 100 µM (inactive),> 100 µM (inactive),–,–,56.8 µM (inactive),> 100 µM (inactive),–,> 100 µM (inactive),20.7 µM (inactive),> 100 µM (inactive),–,–,> 100 µM (inactive),> 100 µM (inactive),> 100 µM (inactive),> 100 µM (inactive),> 100 µM (inactive),> 100 µM (inactive)
COc1cc(-c2cc(=O)c3c(O)c(CC=C(C)C)c(O)cc3o2)ccc1O,> 50 µM (inactive),–,32.3 µM (inactive),19.1 µM (inactive),–,–,16.9 µM (inactive),12 µM (inactive),–,24 µM (inactive),–,11.7 µM (inactive),–,–,32.9 µM (inactive),43.5 µM (inactive),8.49 µM (inactive),9.1 µM (inactive),21.6 µM (inactive),29.5 µM (inactive)
O=C(Nc1ccccc1F)c1c(O)nc2sccn2c1=O,> 10 µM (inactive),–,> 10 µM (inactive),> 10 µM (inactive),–,–,> 10 µM (inactive),> 10 µM (inactive),–,> 10 µM (inactive),> 10 µM (inactive),> 10 µM (inactive),–,–,> 10 µM (inactive),> 10 µM (inactive),> 10 µM (inactive),> 10 µM (inactive),–,> 10 µM (inactive)
O=C1c2cccc3cc4ccccc4c(c23)C(=O)N1CCNCCNCCNCCN1C(=O)c2cccc3cc4ccccc4c(c23)C1=O,< 0.01 µM (active),< 0.01 µM (active),–,< 0.01 µM (active),0.0131 µM (active),< 0.01 µM (active),0.0243 µM (active),< 0.01 µM (active),0.0114 µM (active),< 0.01 µM (active),–,–,< 0.01 µM (active),< 0.0139 µM (active),–,–,–,–,–,–
CCOC(=O)CSc1nc(N)c2c(-c3ccc(OC)c(OC)c3)c3c(nc2n1)CCCC3,95.5 µM (inactive),–,26.9 µM (inactive),> 100 µM (inactive),–,–,–,24.4 µM (inactive),–,> 100 µM (inactive),–,> 100 µM (inactive),–,–,> 100 µM (inactive),43 µM (inactive),> 100 µM (inactive),> 100 µM (inactive),61.9 µM (inactive),17.1 µM (inactive)
